Experimental data: ChEMBL document CHEMBL3352340, “7-Amino-2-phenylpyrazolo[4,3-d]pyrimidine derivatives: structural investigations at the 5-position to target human A₁ and A(2A) adenosine receptors. Molecular modeling and pharmacological studies” (Eur J Med Chem, 2014)
Calls of active or inactive are those of the source. No cut-off for these calls is given here.

Tests used:
[1] = target: T1, Adenosine receptor A1 (Homo sapiens) (UniProt P30542); assay: Displacement of [3H]-DPCPX from human adenosine A1 receptor expressed in CHO cells at 1 uM by scintillation counting analysis relative to control; type: cell-based
T1 sequence (whole entry): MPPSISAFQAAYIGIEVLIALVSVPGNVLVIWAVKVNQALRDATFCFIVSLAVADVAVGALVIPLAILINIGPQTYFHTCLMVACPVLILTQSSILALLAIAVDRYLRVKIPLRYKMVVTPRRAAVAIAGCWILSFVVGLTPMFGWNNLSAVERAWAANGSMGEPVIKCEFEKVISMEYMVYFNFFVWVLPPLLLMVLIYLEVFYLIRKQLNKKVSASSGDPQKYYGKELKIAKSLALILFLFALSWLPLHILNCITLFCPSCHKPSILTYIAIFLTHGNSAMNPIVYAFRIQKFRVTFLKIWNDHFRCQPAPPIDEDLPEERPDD

Adenosine receptor A2a [2] = target: T2, Adenosine receptor A2a (Homo sapiens, UniProt P29274); assay: Displacement of [3H]ZM241385 from human adenosine A2A receptor expressed in CHO cells at 1 uM by scintillation counting analysis relative to control; type: cell-based
T2 sequence (P29274 whole entry): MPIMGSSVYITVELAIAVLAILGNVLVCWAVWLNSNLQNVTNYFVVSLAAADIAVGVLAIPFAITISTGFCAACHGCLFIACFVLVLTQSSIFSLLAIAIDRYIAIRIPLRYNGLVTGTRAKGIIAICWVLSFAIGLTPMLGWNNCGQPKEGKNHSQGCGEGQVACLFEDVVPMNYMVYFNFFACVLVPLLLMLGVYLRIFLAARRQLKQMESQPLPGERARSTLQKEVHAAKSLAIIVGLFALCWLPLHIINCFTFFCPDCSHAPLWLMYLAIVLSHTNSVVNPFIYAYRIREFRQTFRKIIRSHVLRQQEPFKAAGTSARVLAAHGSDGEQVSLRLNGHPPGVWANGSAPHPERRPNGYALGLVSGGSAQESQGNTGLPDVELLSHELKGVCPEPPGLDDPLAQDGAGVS

[3] = target: T3, Adenosine receptor A3 (Homo sapiens) (UniProt P0DMS8); assay: Displacement of [3H]AB-MECA from human adenosine A3 receptor expressed in CHO cells at 1 uM by scintillation counting analysis relative to control; type: cell-based
T3 sequence (whole entry): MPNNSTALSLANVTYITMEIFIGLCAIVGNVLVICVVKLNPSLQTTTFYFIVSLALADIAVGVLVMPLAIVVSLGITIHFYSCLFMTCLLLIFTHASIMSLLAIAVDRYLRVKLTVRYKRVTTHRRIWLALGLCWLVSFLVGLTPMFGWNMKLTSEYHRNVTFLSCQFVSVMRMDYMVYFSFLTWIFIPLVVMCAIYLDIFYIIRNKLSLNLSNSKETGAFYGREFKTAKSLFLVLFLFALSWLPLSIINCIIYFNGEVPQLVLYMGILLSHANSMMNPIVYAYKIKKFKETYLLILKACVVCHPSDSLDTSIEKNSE

[4] = target: T4, Adenosine receptor A2b (Homo sapiens) (UniProt P29275); assay: Antagonist activity at human adenosine A2B receptor expressed in CHO cells assessed as inhibition of NECA-stimulated cAMP level at 1 uM by scintillation counting analysis; type: functional, cell-based
T4 sequence (whole entry): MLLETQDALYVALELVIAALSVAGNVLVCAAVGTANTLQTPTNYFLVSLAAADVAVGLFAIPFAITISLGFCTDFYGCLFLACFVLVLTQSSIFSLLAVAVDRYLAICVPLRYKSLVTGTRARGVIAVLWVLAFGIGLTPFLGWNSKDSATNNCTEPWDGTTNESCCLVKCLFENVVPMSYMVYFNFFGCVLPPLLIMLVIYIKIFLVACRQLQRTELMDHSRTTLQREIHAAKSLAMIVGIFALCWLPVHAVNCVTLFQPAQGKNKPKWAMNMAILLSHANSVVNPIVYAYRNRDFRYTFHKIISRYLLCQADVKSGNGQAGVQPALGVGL

[5] = target: T1, Adenosine receptor A1 (Homo sapiens); details: CHO, 100 nM
Description: Antagonist activity at human adenosine A1 receptor expressed in CHO cells assessed as inhibition of CCPA-stimulated cAMP level at 100 nM by scintillation counting analysis

Adenosine receptor A1 [6] = target: T5, Adenosine receptor A1 (Homo sapiens, UniProt P30542); assay: Displacement of [3H]-DPCPX from human adenosine A1 receptor expressed in CHO cells by scintillation counting analysis; type: cell-based
T5 sequence (P30542 whole entry): T1 sequence (whole entry)

Adenosine receptor A2a [7] = target: T2, Adenosine receptor A2a; assay: Displacement of [3H]ZM241385 from human adenosine A2A receptor expressed in CHO cells by scintillation counting analysis; type: cell-based
Adenosine receptor A3 = target: T6, Adenosine receptor A3 (Homo sapiens, UniProt P0DMS8); assay: Displacement of [3H]AB-MECA from human adenosine A3 receptor expressed in CHO cells by scintillation counting analysis; type: cell-based
T6 sequence (P0DMS8 whole entry): T3 sequence (whole entry)

Adenosine receptor A2b = target: T7, Adenosine receptor A2b (Homo sapiens, UniProt P29275); assay: Antagonist activity at human adenosine A2B receptor expressed in CHO cells assessed as inhibition of NECA-stimulated cAMP level by scintillation counting analysis; type: functional, cell-based
T7 sequence (P29275 whole entry): T4 sequence (whole entry)

Adenosine receptor A1 [8] = target: T5, Adenosine receptor A1; assay: Antagonist activity at human adenosine A1 receptor expressed in CHO cells assessed as inhibition of CCPA-stimulated cAMP level by scintillation counting analysis; type: functional, cell-based
Adenosine receptor A2a [9] = target: T2, Adenosine receptor A2a; assay: Antagonist activity at human adenosine A2A receptor expressed in CHO cells assessed as inhibition of NECA-stimulated cAMP level by scintillation counting analysis; type: functional, cell-based

Row | inhibition [1] | inhibition (Adenosine receptor A2a [2]) | inhibition [3] | inhibition [4] | inhibition [5] | Ki (Adenosine receptor A1 [6]) | Ki (Adenosine receptor A2a [7]) | Ki (Adenosine receptor A3) | IC50 (Adenosine receptor A2b) | IC50 (Adenosine receptor A1 [8]) | IC50 (Adenosine receptor A2a [9]) | Structure (SMILES)
1 | 49% | 1% | 11% | 1% | – | – | – | – | – | – | – | Nc1nc(Cc2ccc(Cl)cc2)nc2cn(-c3ccccc3)nc12
2 | – | – | – | 1% | – | 375 nM | 213 nM | 572 nM | – | – | – | COc1ccccc1Cc1nc(N)c2nn(-c3ccccc3)cc2n1
3 | – | 44% | 22% | 3% | – | 155 nM | – | – | – | – | – | Nc1nc(Cc2ccccc2Cl)nc2cn(-c3ccccc3)nc12
4 | – | – | – | 1% | – | 312 nM | 521 nM | 435 nM | – | – | – | Nc1nc(Cc2cccc(O)c2)nc2cn(-c3ccccc3)nc12
5 | – | – | – | 1% | – | 64 nM | 89 nM | 97 nM | – | – | – | Nc1nc(Cc2ccccc2O)nc2cn(-c3ccccc3)nc12
6 | – | 2% | 14% | 1% | – | 75 nM | – | – | – | – | – | Nc1nc(Cc2ccc3c(c2)OCO3)nc2cn(-c3ccccc3)nc12
7 | 32% | 6% | 42% | 1% | – | – | – | – | – | – | – | Nc1nc(Cc2cccc(Cl)c2)nc2cn(-c3ccccc3)nc12
8 | – | – | 37% | – | – | 35 nM | 154 nM | – | 123 nM | – | – | Nc1nc(Cc2ccccc2F)nc2cn(-c3ccccc3)nc12
9 | 1% | 21% | 41% | 1% | – | – | – | – | – | – | – | Nc1nc(Cc2cccc(C(F)(F)F)c2)nc2cn(-c3ccccc3)nc12
10 | 39% | 44% | 20% | 4% | – | – | – | – | – | – | – | Nc1nc(Cc2ccc(O)cc2)nc2cn(-c3ccccc3)nc12
11 | 38% | 26% | 39% | 21% | – | – | – | – | – | – | – | Cc1ccc(Cc2nc(N)c3nn(-c4ccccc4)cc3n2)cc1
12 | – | 30% | 37% | 7% | – | 420 nM | – | – | – | – | – | Nc1nc(CCc2ccc(O)cc2)nc2cn(-c3ccccc3)nc12
13 | – | – | 46% | – | – | 0.22 nM | 146 nM | – | 314 nM | 2.87 nM | – | Nc1nc(CCCc2cccc(O)c2)nc2cn(-c3ccccc3)nc12
14 | 48% | 20% | 38% | 5% | – | – | – | – | – | – | – | COc1ccc(Cc2nc(N)c3nn(-c4ccccc4)cc3n2)cc1
15 | 41% | 31% | 11% | 21% | – | – | – | – | – | – | – | Cc1cccc(Cc2nc(N)c3nn(-c4ccccc4)cc3n2)c1
16 | – | 14% | 37% | 1% | – | 90 nM | – | – | – | – | – | COc1cccc(Cc2nc(N)c3nn(-c4ccccc4)cc3n2)c1

Further lines, the molecule ahead of its results:

Row | Structure (SMILES) | inhibition [1] | inhibition (Adenosine receptor A2a [2]) | inhibition [3] | inhibition [4] | inhibition [5] | Ki (Adenosine receptor A1 [6]) | Ki (Adenosine receptor A2a [7]) | Ki (Adenosine receptor A3) | IC50 (Adenosine receptor A2b) | IC50 (Adenosine receptor A1 [8]) | IC50 (Adenosine receptor A2a [9])
17 | OC[C@H]1O[C@@H](n2cnc3c(NC4CCCC4)nc(Cl)nc32)[C@H](O)[C@@H]1O | – | – | – | – | Active | – | – | – | – | – | –
18 | CC(C)c1nc(N)c2nn(-c3ccccc3)cc2n1 | 2% | 22% | 11% | 5% | – | – | – | – | – | – | –
19 | COc1cccc(CCCc2nc(N)c3nn(-c4ccccc4)cc3n2)c1 | – | – | 33% | – | – | 0.15 nM | 147 nM | – | 334 nM | 2.41 nM | –
20 | COc1ccc(CCCc2nc(N)c3nn(-c4ccccc4)cc3n2)cc1 | – | – | 1% | 30% | – | 16 nM | 790 nM | – | – | – | –
21 | Nc1nc(/C=C/c2ccccc2)nc2cn(-c3ccccc3)nc12 | – | 21% | 25% | 7% | – | 480 nM | – | – | – | – | –
22 | COc1ccccc1CCCc1nc(N)c2nn(-c3ccccc3)cc2n1 | – | – | 47% | – | – | 1.31 nM | 153 nM | – | 387 nM | 12 nM | –
23 | CC(C)Cc1nc(N)c2nn(-c3ccccc3)cc2n1 | 49% | 50% | 13% | 1% | – | – | – | – | – | – | –
24 | CCc1nc(N)c2nn(-c3ccccc3)cc2n1 | – | 38% | 38% | 49% | – | 90 nM | – | – | – | – | –
25 | Nc1nc(CCCc2ccccc2)nc2cn(-c3ccccc3)nc12 | – | – | 12% | 42% | – | 5.31 nM | 55 nM | – | 432 nM | 43 nM | 423 nM
26 | C=CCOc1ccc(CCCc2nc(N)c3nn(-c4ccccc4)cc3n2)cc1 | 40% | 15% | 3% | 3% | – | – | – | – | – | – | –
27 | Nc1nc(CCCc2ccccc2O)nc2cn(-c3ccccc3)nc12 | – | – | 36% | – | – | 0.54 nM | 102 nM | – | 247 nM | 4.26 nM | –
28 | Nc1nc(CCc2ccccc2)nc2cn(-c3ccccc3)nc12 | 15% | 35% | 17% | 2% | – | – | – | – | – | – | –
29 | Nc1nc(CCCc2ccc(O)cc2)nc2cn(-c3ccccc3)nc12 | – | – | 20% | 5% | – | 18 nM | 722 nM | – | – | – | –
30 | Nc1nc(CCCc2ccc(OCc3ccccc3)cc2)nc2cn(-c3ccccc3)nc12 | 14% | 3% | 2% | 8% | – | – | – | – | – | – | –
31 | Nc1ncnc2cn(-c3ccccc3)nc12 | – | – | 4% | – | – | 80 nM | 410 nM | – | 630 nM | – | –
32 | COc1ccc(CCc2nc(N)c3nn(-c4ccccc4)cc3n2)cc1 | – | 13% | 22% | 9% | – | 380 nM | – | – | – | – | –
